One data set relates to LNCaP cells. In words: Confocal microscopy of fluorescein polyamide uptake in LNCaP cells. The data set is classed as cell-based. Conditions: for nuclear localization in LNCaP cells: 2 μM, 24 hr. On the procedure: Cells were plated in 35 mm optical dishes (MatTek) and dosed with polyamide 86 at 1 μM for 24 hours with or without 1 μM MG132. Cells were then washed with PBS and imaged on a confocal microscope (Exciter, Zeiss) using a 63× oil immersion lens. Confocal imaging was performed following established protocols (33).
To determine the biological activity of 78 in LNCaP cells we first looked for evidence nuclear localization using fluorescein analog 90. The fluorescein analog of 77, compound 88, was used as benchmark.

Data set [1] is described as follows: Liver uptake of fluorescein-polyamide conjugates in mice. The class given is in vivo. The conditions noted are these: 50 nmol (~3 mg/kg), 24 hours. On the procedure: Male C57BL/6J mice (n=2 per group) were injected with 50 nmol (˜3 mg/kg) of 88-91 and then sacrificed 24 hours later. Tissue was excised and processed as previously described (20). The tissues were excised and fixed in 10% Neutral Buffered Formalin for 48 hours. They were subsequently cryoprotected in 15% and 30% aqueous sucrose solution (w/v) for 24 hours each, embedded in a medium for frozen sections (Sakura) and frozen on dry ice. Fluorescence intensity in liver tissue was assessed by laser confocal microscopy in 10 μm thick sections on slides mounted with a ProLong antifade reagent (Invitrogen).

Data set [2] is described as follows: Serum circulation after subcutaneous injection in C57BL/6 mice. The data set is classed as in vivo. Conditions: 10 mg/kg, male C57BL/6J. Here is the method: To investigate if polyamide 77 could be detected in peripheral blood after SC injections, 120 nmol of 77 (in 5% DMSO/PBS) was injected into the right flank of four C57BL/6 mice. Blood was collected from anesthetized mice via retroorbital collection at 5 minutes, 4 h, and 12 h after injection, then processed by methods previously described and analyzed by HPLC (35). For measurement of serum PSA (KLK3) and uric acid, blood was collected from anesthetized mice via retroorbital collection at experimental endpoint and serum was separated from blood by centrifugation. Serum PSA (KLK3) was measured by ELISA (R&D systems) according to manufacturer's instructions. Uric acid was measured as described (36).
We synthesized four structurally related polyamides (FIG. 28) that have an identical Py-Im sequence ImPyPyPy-γ-ImPyPyPy-NHMe-IPA.

Data set [3] can be described thus: Escalating single dose subcutaneous injections, male C57BL/6J mice (weight, histopathology, serum). The conditions noted are these: for weight loss after single SC dose: 1, 3, 10 mg/kg, 9 days.
Method: Representative mice (n=2 per dosing group unless otherwise noted) were subjected to histopathology analysis by a veterinary pathologist. Blood from all mice was sampled and sent for analysis of serum markers of target organs. […] These mice were euthanized when significant duress was apparent.
All animal experiments were conducted under an approved protocol at the California Institute of Technology. Animals were allowed to adjust for 3 days after arrival before treatment. […] Animals were monitored daily for weight loss over 9 days and sacrificed. […] Weight was recorded on days of injection and at the experiment endpoint.
Sacrificed animals from weight loss experiments were fixed in 10% formalin and sent for histopathology analysis by IDEXX-RADIL. Histopathologic analysis was performed on the cecum, duodenum, heart, ileum, kidney, liver, lung, pancreas, spleen, and stomach. Tissue analysis was performed as a blind study to the identity of the animals.
Serum from treated animals were collected by retroorbital bleeding. Blood samples were centrifuged at 6,000 rpm for 5 min to collect the serum. Serum ALT, AST, total bilirubin, BUN, and creatinine levels were sent for analysis by IDEXX-RADIL. Serum analysis was performed as a blind study to the identity of the animals.
The test system of data set [4] is PSA mRNA expression in LNCaP cells. In words: DHT-induced PSA mRNA in LNCaP cells, quantitative real-time RT-PCR. Conditions: for inhibition of DHT-induced PSA expression: up to, at 10 μM, 1 nM DHT. The data set is classed as cell-based. (In general: In qPCR the cycle at which signal appears reflects the starting amount.)
Method: LNCaP cells (ATCC) were plated in 24-well plates at a density of 40-50×10^3 cells per well (80-100×10^3 cells per ml) in RPMI medium 1640 (ATCC) supplemented with 10% FBS (Irvine Scientific, Santa Ana, Calif.). After 72 h, the medium was replaced with RPMI medium 1640 containing 10% charcoal stripped FBS with or without polyamides at the designated concentrations. Cells were grown for an additional 48 h and then treated with 1 nM DHT for 16 h. When appropriate, bicalutamide was added 2 h before DHT stimulation. Isolation of RNA and cDNA synthesis was performed as described (21). Quantitative real-time RT-PCR was performed with SYBR Green PCR Master Mix (Applied Biosystems, Foster City, Calif.) on an ABI 7300 instrument. PSA mRNA was measured relative to β-glucuronidase as an endogenous control.
In data set [5] the test system is FKBP5 mRNA expression in LNCaP cells. In words: DHT-induced FKBP5 mRNA in LNCaP cells. The class given is cell-based.
For data set [6], the system named is transcripts in DHT-stimulated LNCaP cells. Briefly: Gene expression with Affymetrix Human Genome U133 Plus 2.0 arrays, DHT-stimulated LNCaP cells. The data set is classed as cell-based. Here is the method:
LNCaP cells were plated in 12-well plates at a density of 80-100×10^3 cells per well. Media, polyamide treatments, and time courses were the same as described above. Bicalutamide was added 2 h before DHT stimulation. RNA was isolated as described in ref. 21. From this point, experiments were carried out at the Millard and Muriel Jacobs Gene Expression Facility at the California Institute of Technology. Labeled mRNA was hybridized to Affymetrix high-density Human Genome U133 Plus 2.0 arrays according to established protocols. Gene expression was analyzed by using Resolver (Rosetta Biosoftware, Seattle, Wash.). Data were uploaded to the Gene Expression Omnibus repository (accession no. GSE7708).
Global effects of polyamides 1 and 2 and bicalutamide on gene expression in DHT-stimulated LNCaP cells were monitored with Affymetrix (Santa Clara, Calif.) high-density Human Genome U133 Plus 2.0 arrays, which interrogate >50,000 transcripts.

In data set [7] the test system is PSA mRNA expression in LNAR cells. In words: PSA mRNA expression in LNAR cells (hormone refractory, over-express AR). The data set is classed as cell-based.
From the text: The cell line LNAR was used, which has been engineered to over-express AR (14). LNAR cells over-express AR and form hormone refractory tumors when xenografted in mice (14).
Data set [8] can be described thus: Multiple-dose subcutaneous injections, male C57BL/6J mice. The data set is classed as in vivo. Conditions: 1 mg/kg SC every 3 days. Here is the method: In addition to single dose injections, the effects of repeated dosing of polyamides 77-80 in mice were examined. In this experiment, 8 week-old male C57BL/6J mice (n=3 per dosing group) were treated with 1 mg/kg of polyamides 77-80 by subcutaneous injection every 3 days, for a cycle of three injections and then sacrificed two days after the final injection (FIG. 31A). As in the single dosing experiments, two mice per group were subjected to histopathology analysis and all blood samples were sent for analysis. […] These mice were promptly euthanized.
Serum from treated animals were collected by retroorbital bleeding. […] All samples were sent for analysis at IDEXX-RADIL.

Data set [9] in a line: Liver microsomal stability, human. The conditions noted are these: 1 μM, Human, 1 hr at 37° C., 1 mg/ml microsomes.
Data set [10] in a line: Liver microsomal stability, mouse. Conditions: 1 μM, Mouse, 1 hr at 37° C., 1 mg/ml microsomes. For orientation: Liver microsomes are a subcellular fraction often used to study metabolism.
Method: Briefly, each polyamide was incubated with 1 mg/ml human or mouse microsomes at 37° C. The reaction was incubated in 100 mM KH2PO4, 2 mM NADPH, 3 mM MgCl2 at pH 7.4. Samples were also incubated in the absence of NADPH to detect NADPH-free degradation. After 60 min the samples were mixed with an equal volume of ice cold methanol stop solution. The mixture was allowed to sit on ice for at least 10 min and mixed with an equal volume of water. The samples were then centrifuged to remove the precipitates and the samples were analyzed by LC/MS/MS. Data represents % remaining by comparing with time zero concentration. The experiments were performed in duplicate.
[11] abbreviates: 10 μM, + DHT, relative to DHT-induced controls, p ≦ 0.01.
Setting [12] is: relative to DHT-induced controls, + DHT.

Data on seven compounds can be found in US20170260169A1, “INHIBITORS FOR STEROID RESPONSE ELEMENTS AND RNA POLYMERASE II AND RELATED METHODS” (priority 2007, published 2017).

Molecules are shown by their SMILES. Like-named read-outs stand apart in the source and are kept apart here.

With `CN(CCCNC(=O)c1cc(NC(=O)c2cc(NC(=O)c3cc(NC(=O)c4nc(NC(=O)C[C@H](CNC(=O)c5cc(NC(=O)c6cc(NC(=O)c7cc(NC(=O)c8nccn8C)cn7C)cn6C)cn5C)NC(=O)OCc5ccccc5)cn4C)cn3C)cn2C)cn1C)CCCNC(=S)Nc1ccc(-c2c3ccc(=O)cc-3oc3cc(O)ccc23)c(C(=O)O)c1` [Polyamide 86], the “cellular uptake with MG132” value in the data set with LNCaP cells (1 μM, 24 hours, 1 μM MG132) is given as “did not affect the cellular uptake”.

In the case of `CC(=O)N[C@@H](CNC(=O)c1cc(NC(=O)c2cc(NC(=O)c3cc(NC(=O)c4nccn4C)cn3C)cn2C)cn1C)CC(=O)Nc1cn(C)c(C(=O)Nc2cc(C(=O)Nc3cc(C(=O)Nc4cc(C(=O)NCCCN(C)CCCNC(=S)Nc5ccc(-c6c7ccc(=O)cc-7oc7cc(O)ccc67)c(C(=O)O)c5)n(C)c4)n(C)c3)n(C)c2)n1` [Polyamide 91], the “nuclear fluorescence in liver sections” value in data set [1] is reported as “the most intense nuclear fluorescence in liver sections”.

On to `Cn1cc2cc1C(=O)NCCCC(=O)Nc1cn(C)c(n1)C(=O)Nc1cc(n(C)c1)C(=O)Nc1cc(n(C)c1)C(=O)Nc1cc(n(C)c1)C(=O)NCC[C@@H](N)C(=O)Nc1cn(C)c(n1)C(=O)Nc1cc(n(C)c1)C(=O)Nc1cc(n(C)c1)C(=O)N2` [Polyamide 87], for which, in data set [2], the “bioavailability in serum after subcutaneous injection” value was “bioavailable after subcutaneous injection at 10 mg/kg”. In addition, the “weight loss after single SC dose” value in [3] is given as “did not cause significant weight loss”. Besides, the “overall toxicity / organ damage” value in data set [3] (single SC 1, 3, 10 mg/kg) was “moderate damage to both the liver and kidney at 3 and 10 mg/kg”. Moreover, the “serum liver markers AST, ALT, total bilirubin” value in data set [3] (single SC dose) is “caused levels of ALT and AST to increase in a dose dependent manner”.

With `CC(O)(CS(=O)(=O)c1ccc(F)cc1)C(=O)Nc1ccc(C#N)c(C(F)(F)F)c1` (stereo not shown) [bicalutamide, reference compound], the half-maximal inhibitory concentration (IC50) (usually the concentration needed to halve the response being measured) in data set [4] (Homo sapiens, LNCaP + DHT, read-out: IC50 for inhibition of PSA mRNA expression) came out at 0.9 µM. Also, the “inhibition of DHT-induced PSA expression” value in data set [4] is on record as “approximately 70%”. The “inhibition of DHT-induced PSA expression” value in data set [4] (listed as Bicalutamide) is “≈ 70%”. The “inhibition of DHT-induced expression of FKBP5” value in [5] is recorded as roughly 95%. Besides, in data set [6] (setting [11]), the “Number of transcripts down-regulated (fold change ≦ −2.0)” value was 602, the “Number of transcripts down-regulated (fold change ≦ −4.0)” value was 133, the “Number of transcripts up-regulated (fold change ≧ 2.0)” value was 611 and the “Number of transcripts up-regulated (fold change ≧ 4.0)” value is reported as 96. In [6] (10 μM, P≦0.01, vs DHT-induced controls), the “number of transcripts affected by at least 2-fold” value is 1,213. In data set [6] (P≦0.01), the “number of the 88 DHT-repressed transcripts derepressed at least 2-fold” value is 87 and the “number of the 199 DHT-induced transcripts inhibited at least 2-fold” value was 186. For the same compound, in data set [6] (setting [12]), the “Fold-change of FKBP5” value is −36.4, the “Fold-change of KLK2” value is reported as −14.7, the “Fold-change of KLK3 (PSA)” value is given as −3.2 and the “Fold-change of TMPRSS2” value is −4.1. The half-maximal inhibitory concentration (IC50) in data set [7] (LNAR + DHT, read-out: IC50 for inhibition of PSA mRNA expression) is greater than 1000 µM. For the same compound, in data set [7] (LNAR − DHT, bicalutamide induces PSA mRNA in LNAR cells, read-out: IC50 for inhibition of PSA mRNA expression (value in parentheses)), the IC50 came to 3.5 µM.

Turning to `CC(=O)N[C@H](CCNC(=O)c1cc(NC(=O)c2cc(NC(=O)c3cc(NC(=O)c4nccn4C)cn3C)cn2C)cn1C)C(=O)Nc1cn(C)c(C(=O)Nc2cc(C(=O)Nc3cc(C(=O)Nc4cc(C(=O)NCCCN(C)CCCNC(=S)Nc5ccc(-c6c7ccc(=O)cc-7oc7cc(O)ccc67)c(C(=O)O)c5)n(C)c4)n(C)c3)n(C)c2)n1` [Polyamide 90], the “nuclear localization in LNCaP cells” value in the data set on LNCaP cells is recorded as “robust nuclear localization”. Moreover, in [1], the “nuclear fluorescence in liver sections” value is “less nuclear fluorescence in liver sections than the other FITC-polyamide conjugates”.

In the case of `CN(CCCNC(=O)c1cccc(C(=O)O)c1)CCCNC(=O)c1cc(NC(=O)c2cc(NC(=O)c3cc(NC(=O)c4nc(NC(=O)C[C@@H](N)CNC(=O)c5cc(NC(=O)c6cc(NC(=O)c7cc(NC(=O)c8nccn8C)cn7C)cn6C)cn5C)cn4C)cn3C)cn2C)cn1C` [Polyamide 79, ImPyPyPy-3-(R)H^2Nγ-ImPyPyPy-NHMe-IPA], in data set [8], the “liver and kidney histopathology” value was “mild multifocal hepatocellular necrosis and apoptosis in the liver and mild variable tubular attenuation, karyomegaly and epithelial necrosis and apoptosis in the kidney”; the “liver and kidney serum markers” value was “elevated AST and ALT”. Further, in data set [8] (three injections), the “weight and physical morbidity” value is “no loss in weight or physical morbidities”. In data set [9], the “Mean remaining parent NADPH-free” value is 100% and the “Mean remaining parent with NADPH” value is 91.9%. Also, in [10], the “Mean remaining parent NADPH-free” value is on record as 100% and the “Mean remaining parent with NADPH” value amounted to 92.4%. The “weight loss after single SC dose” value in [3] is “significant weight loss only at 10 mg/kg”. Also, in data set [3] (single SC 3 mg/kg), the kidney histopathology result was “Moderate atypical tubular regeneration”; the liver histopathology entry is “Mild hepatocellular necrosis and apoptosis”. In [3] (single SC 10 mg/kg), the liver histopathology result is “diffuse hepatocellular necrosis and apoptosis”; the spleen histopathology result is “Mild lymphoid apoptosis in the white pulp of the spleen”. Further, in [3] (single SC dose), the “serum kidney markers creatinine and BUN” value is “elevated BUN at 10 mg/kg”; the “serum liver markers AST, ALT, total bilirubin” value is “severe elevation of AST, ALT, and total bilirubin at 10 mg/kg and to a lesser extent at 3 mg/kg”.

For the compound `CN(CCCNC(=O)c1cc(NC(=O)c2cc(NC(=O)c3cc(NC(=O)c4nc(NC(=O)[C@H](N)CCNC(=O)c5cc(NC(=O)c6cc(NC(=O)c7cc(NC(=O)c8nccn8C)cn7C)cn6C)cn5C)cn4C)cn3C)cn2C)cn1C)CCCNC(=S)Nc1ccc(-c2c3ccc(=O)cc-3oc3cc(O)ccc23)c(C(=O)O)c1` [Polyamide 88], in the data set with LNCaP cells, the “nuclear localization in LNCaP cells” value was “robust nuclear localization”.
